This is an account of results in PMC3844542 (Anesthesia and analgesia, 2013).

The target of test [1] is leukocyte function–associated antigen-1 (LFA-1) (Homo sapiens, UniProt P20701). As to the kind of experiment: ELISA-type ICAM-1–LFA-1 binding assay with purified LFA-1. Format: biochemical. For orientation: ELISA stands for enzyme-linked immunosorbent assay.
The target of test [2] is T1, LFA-1 αL I domain (wild-type, low-affinity conformer) (Homo sapiens, UniProt P20701).
T1 sequence (P20701 153-332): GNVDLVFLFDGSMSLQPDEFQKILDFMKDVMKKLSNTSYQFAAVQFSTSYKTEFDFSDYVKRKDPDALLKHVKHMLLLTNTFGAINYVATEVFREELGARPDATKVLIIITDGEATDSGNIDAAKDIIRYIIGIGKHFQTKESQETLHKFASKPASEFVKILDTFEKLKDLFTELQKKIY
As to the kind of experiment: 1-aminoanthracene fluorescence displacement assay. Format: binding.

Chain of leukocyte function–associated antigen-1 (LFA-1) (P20701 26-1090 limits assumed): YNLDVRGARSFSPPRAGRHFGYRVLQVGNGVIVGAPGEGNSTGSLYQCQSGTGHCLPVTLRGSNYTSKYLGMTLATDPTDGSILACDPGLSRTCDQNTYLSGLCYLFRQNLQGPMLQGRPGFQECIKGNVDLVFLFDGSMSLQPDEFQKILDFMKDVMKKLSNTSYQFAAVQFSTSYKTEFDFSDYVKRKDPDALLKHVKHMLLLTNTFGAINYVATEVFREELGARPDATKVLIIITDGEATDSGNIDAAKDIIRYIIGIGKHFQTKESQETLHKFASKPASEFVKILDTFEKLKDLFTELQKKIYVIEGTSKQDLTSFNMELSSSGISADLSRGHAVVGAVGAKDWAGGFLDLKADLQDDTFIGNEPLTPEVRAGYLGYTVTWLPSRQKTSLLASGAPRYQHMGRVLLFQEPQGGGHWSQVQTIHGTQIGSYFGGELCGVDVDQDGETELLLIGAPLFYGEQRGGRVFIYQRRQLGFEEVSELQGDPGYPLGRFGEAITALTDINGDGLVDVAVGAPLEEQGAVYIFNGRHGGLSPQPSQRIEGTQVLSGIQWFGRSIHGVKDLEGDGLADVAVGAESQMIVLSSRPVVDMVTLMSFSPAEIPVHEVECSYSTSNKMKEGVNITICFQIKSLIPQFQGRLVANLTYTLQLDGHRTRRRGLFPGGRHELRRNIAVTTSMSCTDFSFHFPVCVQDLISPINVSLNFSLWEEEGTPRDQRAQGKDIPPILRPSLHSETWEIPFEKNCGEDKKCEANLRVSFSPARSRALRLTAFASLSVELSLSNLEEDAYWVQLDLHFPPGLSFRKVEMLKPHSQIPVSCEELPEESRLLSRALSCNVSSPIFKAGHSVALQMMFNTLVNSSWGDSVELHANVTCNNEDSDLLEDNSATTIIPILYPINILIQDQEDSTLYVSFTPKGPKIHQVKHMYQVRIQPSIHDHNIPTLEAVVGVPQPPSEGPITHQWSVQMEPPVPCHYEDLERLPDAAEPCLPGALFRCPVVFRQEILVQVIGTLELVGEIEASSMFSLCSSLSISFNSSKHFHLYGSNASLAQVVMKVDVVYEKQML
Chain of leukocyte function–associated antigen-1 (LFA-1) (P05107 23-769 partner): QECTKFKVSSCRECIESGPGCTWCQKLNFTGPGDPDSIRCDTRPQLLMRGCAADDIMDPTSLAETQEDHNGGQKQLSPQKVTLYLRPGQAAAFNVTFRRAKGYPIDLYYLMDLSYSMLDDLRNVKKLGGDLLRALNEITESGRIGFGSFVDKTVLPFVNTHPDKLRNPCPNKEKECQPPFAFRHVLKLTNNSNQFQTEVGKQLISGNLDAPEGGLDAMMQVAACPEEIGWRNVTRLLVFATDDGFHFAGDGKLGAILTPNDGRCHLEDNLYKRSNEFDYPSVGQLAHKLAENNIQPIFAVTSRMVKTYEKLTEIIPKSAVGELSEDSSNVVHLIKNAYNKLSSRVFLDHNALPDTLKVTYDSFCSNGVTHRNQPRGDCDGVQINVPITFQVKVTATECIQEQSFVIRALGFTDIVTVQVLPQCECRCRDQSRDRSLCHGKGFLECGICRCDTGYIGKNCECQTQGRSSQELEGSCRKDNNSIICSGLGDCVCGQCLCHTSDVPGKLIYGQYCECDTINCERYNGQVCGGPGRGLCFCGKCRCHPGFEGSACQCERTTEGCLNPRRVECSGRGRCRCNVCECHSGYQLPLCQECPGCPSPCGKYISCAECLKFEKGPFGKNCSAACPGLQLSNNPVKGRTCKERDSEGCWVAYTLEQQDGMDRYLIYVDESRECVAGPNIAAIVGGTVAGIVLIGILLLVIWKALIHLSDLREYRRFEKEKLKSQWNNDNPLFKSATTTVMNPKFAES

On to `CC(C)(C)c1cccc(C(C)(C)C)c1O` [DTBP, 2,6-di-tert-butylphenol], for which the “ELISA-type ICAM-1-LFA-1 binding assay with purified LFA-1” value in test [1] is “Both propofol and DTBP inhibited ICAM-1–LFA-1 binding”.

As a reminder, the IC50 is the concentration that gives 50% inhibition. A high value points to a need for much substance. The compound `CC(C)c1cccc(C(C)C)c1O` [propofol] yielded an IC50 in test [2] of 90.3 µM.
